Experimental data from patent US20030139609A1, “Aziridinyl quinone antitumor agents based on indoles and cyclopent[b]indoles” (priority 2001, published 2003).

Legend:
[1] = system: National Cancer Institute 60-cell line; test: NCI 60-cell line in vitro screen (average cytotoxicity and cancer specificity)
Protocol: Cytotoxic and Cytostatic Screening of Series 1-9. […] The cytostatic parameters include GI50 and TGI, which are the concentrations of drug required for 50% growth inhibition and total growth inhibition, respectively. The cytotoxic parameter is the LC50, which is the concentration required for 50% cell kill.
4. […] Cancer specificity is measured from the ± value under the “Average Log LC50 60-Cell Line” heading of Table 5. A ± value greater than 2 indicates a greater than 100-fold higher/lower cytotoxicity in some histological cancer types compared to the mean cytotoxicity.
The DT-diaphorase levels in the National Cancer Institute 60-cell line in vitro screen have been determined and correlated with the cytotoxicity of antitumor agents activated by 2-electron reduction. {Fitzsimmons, S. A., Workman, P., Grever, M., Paull, K., Camalier, R., and Lewis, A. D., Reductase Enzyme Expression Across the National Cancer Institute Tumor Cell Line Panel: Correlation with Sensitivity To Mitomycin C and EO9, J. Natl. Cancer Inst., 1996, 88, 259-69}. Sensitive cancers usually include NSC lung and colon cancers (and to a lesser extent CNS, melanoma, and renal cancers) by virtue of their elevated DT-diaphorase levels.

[2] = system: 600 bp calf thymus DNA; test: DNA reductive alkylation by catalytically reduced aziridinyl quinones; format: biochemical
Protocol: DNA Alkylation Screening of Series 1-9. The extent of DNA reductive alkylation was determined by catalytic reduction of the aziridinyl quinones in the presence of 600 bp calf thymus DNA. Oxidative workup afforded DNA colored blue as a result of the aminoquinone chromophore. […] The anaerobic conditions employed for DNA reductive alkylation assays is not meant to mimic the environment of tumor cells. These conditions do permit an accurate assessment of the structural requirements for DNA alkylation by the hydroquinone species. To be sure, agents incapable of akylating DNA under these ideal conditions will not do so in the typical cellular environment.
Alkylation of DNA by Reduced Indoloquinones. To a mixture of 1-2 mg of sonicated (600 bp) calf thymus DNA in 2.0 mL of 0.05 M of pH 7.4 tris buffer and 2 mg of Pd on carbon was added a five-to-one base pair equivalent amount of the indoloquinone dissolved in 0.5 mL of dimethylsulfoxide. The resulting solution was degassed under argon for 30 min., after which the mixture was purged with H2 for 10 min. The solution was then purged with argon for 10 min. and placed in a 30° C. bath for 24 h. The reaction was opened to the air and the catalyst was removed with a Millex-PF […] syringe filter. The filtrate was adjusted to 0.3 M acetate with a 3 M stock solution of pH 5.1 acetate and then diluted with two volumes of ethanol. The mixture was chilled at −20° C. for 12 h and the DNA pellet collected by centrifuging at 12,000 g for 20 min. The pellet was redissolved in water and then precipitated and centrifuged again. The resulting blue or red pellet was suspended in ethanol, centrifuged, and dried. The dried pellet was weighed and dissolved in 1 mL of double distilled water resulting in a clear colored solution with […]max˜550 nm, □˜750 M^−1 cm^−1. This is the chromophore of the aminoquinone resulting from nucleophile-mediated opening of the aziridine ring. Model 2′-chloroethyl aminoquinones for extinction coefficient determination were prepared by treatment of the indoloquinone with HCl. {Skibo, E. B. and Xing, C., Chemistry and DNA Alkylation Reactions of Aziridinyl Quinones: Development of an Efficient Alkylating Agent of the Phosphate Backbone, Biochemistry, 1998, 37, 15199-15213}.

[3] = system: NCI-H460 non-small-lung cancer cell line; test: NCI In Vitro Cell Line Screening, NSC H460 cell line; format: cell-based
Description: Cytotoxic and Cytostatic Screening of Series 1-9.

[4] = target: human DT-diaphorase (from the non-small cell lung NCI-H460 cell line) (Homo sapiens, UniProt P15559); test: DT-diaphorase substrate kinetics (recombinant enzyme, anaerobic, Lineweaver-Burke); format: biochemical
Sequence of human DT-diaphorase (from the non-small cell lung NCI-H460 cell line) (P15559 whole entry): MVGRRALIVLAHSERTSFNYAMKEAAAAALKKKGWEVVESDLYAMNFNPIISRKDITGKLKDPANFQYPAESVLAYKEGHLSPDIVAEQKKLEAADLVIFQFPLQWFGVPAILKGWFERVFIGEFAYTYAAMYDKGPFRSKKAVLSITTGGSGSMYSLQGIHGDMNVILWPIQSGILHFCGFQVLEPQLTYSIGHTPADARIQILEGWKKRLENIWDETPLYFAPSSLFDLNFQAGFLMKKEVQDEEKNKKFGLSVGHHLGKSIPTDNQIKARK
Description: Listed in Tables 1-4 are the human DT-diaphorase kinetic parameters for Series 1-9, along with the DNA alkylation percentages. These parameters include the apparent dissociation constant KM, the apparent maximal velocity VMAX, and the substrate specificity, VMAX/KM. The designation “apparent” refers to the present of productive and nonproductive constants in KM and VMAX. {Fersht, A. R., The Hydrogen Bond in Molecular Recognition Trends, Biochem. Sci., 1987, 12, 301-304} These constants cancel in the ratio VMAX/KM, which is the best parameter to compare substrates. Human DT-diaphorase (from the non-small cell lung NCI-H460 cell line) {Beall, H. D., Mulcahy, R. T., Siegel, D., Traver, R D., Gibson, N. W., and Ross, D., Metabolism of Bioreductive Antitumor Compounds by Purified Rat and Human DT-Diaphorase Cancer Res., 1994, 54, 3196-3201 } was used to obtain these kinetic parameters. This enzyme is the same as that present in other human tissues, cancerous or otherwise.
Kinetics Studies using Recombinant DT-diaphorase. Kinetics studies were carried out in 0.05 M pH 7.4 Tris buffer under anaerobic conditions, employing Thunberg cuvettes. […] To calculate Vmax, the value of □□ must be obtained. □□ was calculated from the initial and final absorbances for complete quinone reduction; all values are between 8000 to 9000 M^−1 cm^−1. […]

CCOC(=O)c1[nH]c2c(c1COC(C)=O)C(=O)C(N1CC1)=CC2=O [Compound 6d, 3-Acetoxymethyl-5-aziridinyl-2-ethoxycarbonylindole-4,7-dione]
± value of Average Log LC50 60-Cell Line [1]: ~1 | Average Log LC50 60-Cell Line ([1]; mean over 60 cell lines, ± value measures cancer specificity): −5.62 ± 1.05 | % of DNA bases reductively activated [2]: 91.2% | DNA alkylation (in words) [2]: high DNA alkylation percentages | DNA alkylation percentage ([2]; catalytic reduction, anaerobic, pH 7.4 tris buffer, 30° C., 24 h, absorbance at 550 nm): 91.2% | GI50 ([3]; Homo sapiens, NCI-H460, concentration for 50% growth inhibition, read-out: Log GI50 NSC H460 (converted)): 37.2 nM | CC50 ([3]; Homo sapiens, NCI-H460, read-out: Log LC50 NSC H460, concentration for 50% cell kill (converted)): 603 nM | Log TGI NSC H460 ([3]; concentration for total growth inhibition): −6.77 | DT-diaphorase specificity [4]: 0.0072 M⁻¹ s⁻¹
